Laboratory results taken from ChEMBL document CHEMBL1201861, “Genomics of Drug Sensitity in Cancer screening data, Wellcome Trust Sanger Institute”.
Several values for one entry are separate records, joined by “and”; a condition that tells them apart may be missing. Equal values may be shown once. Where a SMILES comes first, the peptide text is derived from it. The star is where a group is joined. Cbz = O=C(OCc1ccccc1)*

Key:
Raji = assay: cells; type: functional, cell-based, Homo sapiens;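 further: cell viability assay measuring inhibition of Raji cell growth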
Description: SANGER: Inhibition of human Raji cell growth in a cell viability assay.

NALM-6 = assay: cells; type: functional, cell-based, Homo sapiens;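 further: growth inhibition of NALM-6 cells, read out with a cell viability assay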
Description: SANGER: Inhibition of human NALM-6 cell growth in a cell viability assay.

CP66-MEL = assay: cells; type: functional, cell-based; conditions: Homo sapiens;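 further: growth inhibition of CP66-MEL cells determined in a cell viability assay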
Description: SANGER: Inhibition of human CP66-MEL cell growth in a cell viability assay.

NB1 = assay: cells; type: functional, cell-based, Homo sapiens
Description: SANGER: Inhibition of human NB1 cell growth in a cell viability assay.

BC-3 = assay: cells; type: functional, cell-based, Homo sapiens;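 further: cell viability assay measuring growth inhibition of human BC-3 cells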
Description: SANGER: Inhibition of human BC-3 cell growth in a cell viability assay.

K052 = assay: cells; type: functional, cell-based, Homo sapiens;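 further: Read-out from a cell viability assay, IC50 reflecting suppression of K052 cell growth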
Description: SANGER: Inhibition of human K052 cell growth in a cell viability assay.

EW-24 = assay: cells; type: functional, cell-based, Homo sapiens;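 further: human EW-24 cancer cell line, growth inhibition read out via a cell viability assay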
Description: SANGER: Inhibition of human EW-24 cell growth in a cell viability assay.

NCI-H322M = assay: cells; type: functional, cell-based, Homo sapiens;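 further: cell viability assay measuring inhibition of growth of human NCI-H322M cells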
Description: SANGER: Inhibition of human NCI-H322M cell growth in a cell viability assay.

MONO-MAC-6 = assay: cells; type: functional, cell-based, Homo sapiens;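 further: cell viability assay measuring growth inhibition of human MONO-MAC-6 cells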
Description: SANGER: Inhibition of human MONO-MAC-6 cell growth in a cell viability assay.

SNU-C1 = assay: cells; type: functional, cell-based, Homo sapiens;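 further: growth inhibition of SNU-C1 human cells, read out by a cell viability assay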
Description: SANGER: Inhibition of human SNU-C1 cell growth in a cell viability assay.

D-336MG = assay: cells; type: functional, cell-based, Homo sapiens
Description: SANGER: Inhibition of human D-336MG cell growth in a cell viability assay.

SCLC-21H = assay: cells; type: functional, cell-based, Homo sapiens;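 further: growth inhibition of cultured human SCLC-21H cells, read out with a cell viability assay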
Description: SANGER: Inhibition of human SCLC-21H cell growth in a cell viability assay.

Daudi = assay: cells; type: functional, cell-based, Homo sapiens;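 further: growth inhibition of Daudi cells, read out by a viability assay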
Description: SANGER: Inhibition of human Daudi cell growth in a cell viability assay.

LP-1 = assay: cells; type: functional, cell-based, Homo sapiens;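 further: growth inhibition of human LP-1 cells, with the read-out taken from a cell viability assay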
Description: SANGER: Inhibition of human LP-1 cell growth in a cell viability assay.

RPMI 8402 = assay: SANGER: Inhibition of human RPMI-8402 cell growth in a cell viability assay.; type: functional, cell-based
NB14 = assay: cells; type: functional, cell-based, Homo sapiens;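 further: growth inhibition of NB14 cells measured with a cell viability assay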
Description: SANGER: Inhibition of human NB14 cell growth in a cell viability assay.

Row | Compound | IC50 (Raji; Homo sapiens, Raji) [µM] | IC50 (NALM-6; Homo sapiens, NALM-6) [µM] | IC50 (CP66-MEL) [µM] | IC50 (NB1; Homo sapiens, NB1) [µM] | IC50 (BC-3; Homo sapiens, BC-3) [µM] | IC50 (K052; Homo sapiens, K052) [µM] | IC50 (EW-24; Homo sapiens, EW-24) [µM] | IC50 (NCI-H322M; Homo sapiens, NCI-H322M) [µM] | IC50 (MONO-MAC-6; Homo sapiens, MONO-MAC-6) [µM] | IC50 (SNU-C1; Homo sapiens, SNU-C1) [µM] | IC50 (D-336MG; Homo sapiens, D-336MG) [µM] | IC50 (SCLC-21H; Homo sapiens, SCLC-21H) [µM] | IC50 (Daudi; Homo sapiens, Daudi) [µM] | IC50 (LP-1; Homo sapiens, LP-1) [µM] | IC50 (RPMI 8402; Homo sapiens, RPMI 8402) [µM] | IC50 (NB14; Homo sapiens, NB14) [µM] | also measured
1 | C=CC(=O)N1CCCC(Nc2nc(Nc3ccc(N(C)C(=O)CC)cc3)nc3[nH]cnc23)C1 (configuration not stated) | > 10.2 | > 10.2 | > 10.2 | > 10.2 | 9.06 | > 10.2 | 4.59 | > 10.2 | > 10.2 | > 10.2 | 8 | > 10.2 | > 10.2 | > 10.2 | > 10.2 | > 10.2 | 
2 | COc1ccc(N(C(=O)Oc2c(C)cccc2C)c2ccnc(Nc3ccc(N4CCN(C)CC4)cc3)n2)c(OC)c1 | > 5.12 | > 5.12 | > 5.12 | > 5.12 | > 5.12 | > 5.12 | > 5.12 | > 5.12 | > 5.12 | > 5.12 | 0.0468 | > 5.12 | 0.714 | > 5.12 | > 5.12 | > 5.12 | 
3 | Cc1cc(N2CCOCC2)cc2[nH]c(-c3c(NC[C@@H](O)c4cccc(Cl)c4)cc[nH]c3=O)nc12 | > 5.12 | 2.97 | > 5.12 | > 5.12 | 4.34 | > 5.12 | > 5.12 | > 5.12 | 0.608 | 2.54 | 0.872 | > 5.12 | > 5.12 | > 5.12 | > 5.12 | > 5.12 | 
4 | NC(=O)c1cccc(-c2cc(Nc3ccc(OC(F)(F)F)cc3)ncn2)c1 | > 1.28 | > 1.28 | > 1.28 | > 1.28 | > 1.28 | > 1.28 | > 1.28 | > 1.28 | > 1.28 | > 1.28 | > 1.28 | > 1.28 | > 1.28 | > 1.28 | > 1.28 | > 1.28 | 
5 | CC(C)C[C@H](NC(=O)[C@H](Cc1ccccc1)NC(=O)c1cnccn1)B(O)O [BORTEZOMIB] | 0.00446 | 0.00449 | 0.000473 | 0.00688 | 0.00661 |  | 0.00208 | > 0.02 | 0.0031 | > 0.02 | 0.000657 | > 0.02 | 0.00122 | > 0.02 | 0.0035 | 0.018 | 
6 | C[C@@H](Oc1cc(-c2cnn(C3CCNCC3)c2)cnc1N)c1c(Cl)ccc(F)c1Cl [CRIZOTINIB] | > 2 | > 2 | > 2 | 0.092 | > 2 | > 2 | > 2 | > 2 | > 2 | > 2 | > 2 | > 2 | > 2 | > 2 | > 2 | > 2 | 
7 | Nc1ccccc1NC(=O)c1ccc(CNC(=O)OCc2cccnc2)cc1 [ENTINOSTAT] | > 5 | 0.649 | 2.48 | 1.28 | 0.783 |  | > 5 | > 5 | 0.388 | > 5 | > 5 | 1.26 | 0.777 | 1.3 | 0.387 | 0.726 | 
8 | Cc1ccc(NC(=O)c2ccc(CN3CCN(C)CC3)cc2)cc1Nc1nccc(-c2cccnc2)n1 [IMATINIB] | > 2 | > 2 | > 2 | > 2 | > 2 | > 2 | > 2 | > 2 | > 2 | > 2 | > 2 | > 2 | > 2 | > 2 | > 2 | > 2 | 
9 | CC(C)C[C@@H](C=O)NC(=O)[C@H](CC(C)C)NC(=O)[C@H](CC(C)C)NC(=O)OCc1ccccc1 [MG-132] (Cbz-Leu-Leu-Leu-aldehyde) | > 1 | > 1 |  |  | > 1 |  | > 1 |  | 0.536 |  |  |  |  |  |  |  | IC50 (Raji; raji): > 1 µM; IC50 (NALM-6; nalm-6): > 1 µM; IC50 (NB1; nb1): > 1 µM; IC50 (BC-3; bc-3): > 1 µM; IC50 (K052; k052): 0.29 µM and > 1 µM; IC50 (EW-24; ew-24): > 1 µM; IC50 (NCI-H322M; nci-h322m): > 1 µM; IC50 (MONO-MAC-6; mono-mac-6): 0.718 µM; IC50 (SNU-C1; snu-c1): > 1 µM; IC50 (D-336MG; d-336mg): > 1 µM; IC50 (SCLC-21H; sclc-21h): > 1 µM; IC50 (Daudi; daudi): > 1 µM; IC50 (LP-1; lp-1): > 1 µM; IC50 (RPMI 8402; rpmi-8402): > 1 µM; IC50 (NB14; nb14): > 1 µM
10 | COc1cc(N2CCC(N3CCN(C)CC3)CC2)ccc1Nc1ncc(Cl)c(Nc2ccccc2S(=O)(=O)C(C)C)n1 [TAE-684] | > 2 | 0.907 | > 2 | < 0.00781 | > 2 | > 2 | > 2 | > 2 | 0.333 | > 2 | 0.662 | > 2 | 1.79 | 1.87 | > 2 | 0.438 | 
